Measurements reported in ChEMBL document CHEMBL5370672, “Discovery of Orally Bioavailable Phthalazinone Analogues as an ENPP1 Inhibitor for STING-Mediated Cancer Immunotherapy” (J Med Chem, 2023).
The source made the active and inactive calls. The rule behind the calls is not given here.

Assays:
[1] = Protein binding in human plasma assessed as unbound fraction by equilibrium dialysis based LC-MS/MS analysis; format: ADME, cell-free
[2] = MRT (0 to t) in BALB/c mouse at 20 mg/kg, po measured after 24 hrs by LC-MS/MS analysis; format: ADME, organism-based; details: in vivo
[3] = Cmax in BALB/c mouse at 5 mg/kg, iv measured after 24 hrs by LC-MS/MS analysis; format: ADME, organism-based; design: dose 5 mg/kg, time 24 hrs, route iv; details: in vivo
[4] = biological target: Cytochrome P450 3A4 (Homo sapiens, UniProt P08684); assay: Inhibition of CYP3A4 in human liver microsomes; format: ADME, Microsome
[5] = AUC (0 to t) in BALB/c mouse at 20 mg/kg, po measured after 24 hrs by LC-MS/MS analysis; format: ADME, organism-based; design: time 24 hrs, dose 20 mg/kg, route po; details: in vivo
[6] = AUC (0 to infinity) in BALB/c mouse at 5 mg/kg, iv measured after 24 hrs by LC-MS/MS analysis; format: ADME, organism-based; design: dose 5 mg/kg, time 24 hrs, route iv; details: in vivo
[7] = biological target: T1, Cytochrome P450 1A2 (Homo sapiens, UniProt P05177); assay: Inhibition of CYP1A2 in human liver microsomes; format: ADME, Microsome
T1 sequence (P05177 whole entry): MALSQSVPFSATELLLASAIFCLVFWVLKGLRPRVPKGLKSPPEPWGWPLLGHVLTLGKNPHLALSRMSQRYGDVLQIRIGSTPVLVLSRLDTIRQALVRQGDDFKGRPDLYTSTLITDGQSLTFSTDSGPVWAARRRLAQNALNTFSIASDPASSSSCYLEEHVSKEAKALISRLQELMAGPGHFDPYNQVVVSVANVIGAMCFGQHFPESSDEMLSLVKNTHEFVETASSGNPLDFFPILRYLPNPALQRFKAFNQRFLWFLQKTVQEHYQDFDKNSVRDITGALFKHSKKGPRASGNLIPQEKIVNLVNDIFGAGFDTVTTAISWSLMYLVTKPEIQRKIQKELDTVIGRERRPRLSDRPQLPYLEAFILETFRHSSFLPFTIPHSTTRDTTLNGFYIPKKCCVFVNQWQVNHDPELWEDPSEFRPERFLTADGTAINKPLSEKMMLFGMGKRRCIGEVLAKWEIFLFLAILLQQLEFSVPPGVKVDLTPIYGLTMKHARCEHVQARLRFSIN

[8] = Toxicity in BALB/c mouse implanted with mouse CT26 cells assessed as effect on body weight at 200 mg/kg, po administered for 2 weeks and measured on day 15 in the presence of anti-PD-L1 antibody; format: organism-based; details: in vivo, 360 h, time 15 day
[9] = biological target: Cytochrome P450 2C9 (Homo sapiens, UniProt P11712); assay: Inhibition of CYP2C9 in human liver microsomes; format: ADME, Microsome
[10] = biological target: Stimulator of interferon genes protein (Homo sapiens) (UniProt Q86WV6); assay: Activation of STING-mediated immune response in human HCT-116 cells transfected with ISRE reporter assessed as increase in cGAMP-induced ISRE activation by measuring fold change at 25 to 100 uM preincubated with compound for 1 hrs followed by cGAMP addition and measured after 48 hrs by luciferase reporter gene assay; format: cell-based; details: filed as activator, dose 25-100 µM, time 49.0 hrs
[11] = Toxicity in BALB/c mouse implanted with mouse CT26 cells assessed as effect on body weight at 200 mg/kg, po preadministered with compound for 2 weeks followed by reinoculation of CT26 cells and measured on day 19 in the presence of anti-PD-L1 antibody; format: organism-based; details: in vivo, 456 h, time 19 day
[12] = Protein binding in mouse plasma assessed as unbound fraction by equilibrium dialysis based LC-MS/MS analysis; format: ADME, cell-free
[13] = Cmax in BALB/c mouse at 20 mg/kg, po measured after 24 hrs by LC-MS/MS analysis; format: ADME, organism-based; design: dose 20 mg/kg, time 24 hrs, route po; details: in vivo
[14] = system: CT26; assay: Antitumor activity against mouse CT26 cells implanted in BALB/c mouse assessed as tumor growth inhibition at 200 mg/kg, po administered for 2 weeks and measured on day 15 relative to control; format: functional; details: CT26, 360 h, time 15 day, read-out: TGI
[15] = Metabolic stability in human liver microsome assessed as intrinsic clearance by LC/MS analysis; format: ADME; details: liver microsomes, read-out: CLH
[16] = Metabolic stability in mouse liver microsome assessed as parent compound remaining measured after 30 mins by LC/MS analysis; format: ADME; details: liver microsomes, read-out: Stability
[17] = system: CT26; assay: Antitumor activity against mouse CT26 cells implanted in BALB/c mouse assessed as tumor growth inhibition at 200 mg/kg, po administered for 2 weeks and measured on day 15 in the presence of anti-PD-L1 antibody relative to control; format: functional; details: CT26, 360 h, time 15 day, read-out: TGI
[18] = system: THP-1; assay: Cytotoxicity against human THP-1 cells assessed as reduction in cell viability upto 50 uM incubated for 24 hrs in the presence of cGAMP by celltiter 96 aqueous one solution cell proliferation assay; format: toxicity, cell-based; details: thp-1, 24 h
[19] = Half-life in BALB/c mouse at 20 mg/kg, po measured after 24 hrs by LC-MS/MS analysis; format: ADME, organism-based; details: in vivo
[20] = system: CT26; assay: Immunological memory derived antitumor activity against mouse CT26 cells implanted in BALB/c mouse assessed as tumor growth regression at 200 mg/kg, po preadministered with compound for 2 weeks followed by reinoculation of CT26 cells and measured on day 19 relative to control; format: functional; details: time 19 day
[21] = Clearance in BALB/c mouse at 5 mg/kg, iv measured after 24 hrs by LC-MS/MS analysis; format: ADME, organism-based; details: in vivo
[22] = biological target: Cytochrome P450 2D6 (Homo sapiens, UniProt P10635); assay: Inhibition of CYP2D6 in human liver microsomes; format: ADME, Microsome
[23] = Metabolic stability in human liver microsome assessed as half-life by LC/MS analysis; format: ADME; details: liver microsomes
[24] = AUC (0 to t) in BALB/c mouse at 5 mg/kg, iv measured after 24 hrs by LC-MS/MS analysis; format: ADME, organism-based; design: dose 5 mg/kg, time 24 hrs, route iv; details: in vivo
[25] = Oral bioavailability in BALB/c mouse at 20 mg/kg measured after 24 hrs by LC-MS/MS analysis; format: ADME, organism-based; details: in vivo
[26] = MRT (0 to t) in BALB/c mouse at 5 mg/kg, iv measured after 24 hrs by LC-MS/MS analysis; format: ADME, organism-based; details: in vivo
[27] = biological target: Stimulator of interferon genes protein (Homo sapiens) (UniProt Q86WV6); assay: Activation of STING-mediated immune response in human HCT-116 cells transfected with ISRE reporter assessed as increase in cGAMP-induced ISRE activation at 25 to 100 uM preincubated with compound for 1 hrs followed by cGAMP addition and measured after 48 hrs by luciferase reporter gene assay; format: cell-based; details: filed as activator, dose 25-100 µM, time 49.0 hrs
[28] = Volume of distribution at steady state in BALB/c mouse at 5 mg/kg, iv measured after 24 hrs by LC-MS/MS analysis; format: ADME, organism-based; details: in vivo, read-out: Vdss

Stimulator of interferon genes protein (Homo sapiens), sequence (Q86WV6 whole entry): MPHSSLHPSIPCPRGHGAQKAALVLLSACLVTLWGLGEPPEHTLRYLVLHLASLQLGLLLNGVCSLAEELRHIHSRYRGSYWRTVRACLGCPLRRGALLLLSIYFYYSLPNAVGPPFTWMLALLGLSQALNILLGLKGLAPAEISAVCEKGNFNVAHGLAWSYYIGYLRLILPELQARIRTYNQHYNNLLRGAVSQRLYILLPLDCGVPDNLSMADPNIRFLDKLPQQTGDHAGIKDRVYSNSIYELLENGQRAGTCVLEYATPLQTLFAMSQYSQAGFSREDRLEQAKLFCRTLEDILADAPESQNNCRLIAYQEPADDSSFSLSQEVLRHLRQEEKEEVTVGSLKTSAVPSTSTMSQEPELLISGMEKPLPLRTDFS
Cytochrome P450 2C9, sequence (P11712 whole entry): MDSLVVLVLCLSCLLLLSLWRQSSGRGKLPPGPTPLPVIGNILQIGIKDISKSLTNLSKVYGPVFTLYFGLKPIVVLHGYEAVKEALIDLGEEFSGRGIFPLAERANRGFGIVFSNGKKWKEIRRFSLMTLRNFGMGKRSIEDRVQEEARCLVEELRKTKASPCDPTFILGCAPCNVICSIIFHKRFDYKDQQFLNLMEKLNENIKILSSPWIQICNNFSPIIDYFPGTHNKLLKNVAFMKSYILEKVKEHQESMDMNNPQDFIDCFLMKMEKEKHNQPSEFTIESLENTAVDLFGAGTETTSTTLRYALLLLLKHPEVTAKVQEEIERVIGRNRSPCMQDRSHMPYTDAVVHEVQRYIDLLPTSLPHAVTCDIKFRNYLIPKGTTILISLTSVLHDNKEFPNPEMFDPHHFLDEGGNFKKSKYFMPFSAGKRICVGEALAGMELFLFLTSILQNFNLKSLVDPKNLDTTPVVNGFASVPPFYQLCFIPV
Cytochrome P450 3A4, sequence (P08684 whole entry): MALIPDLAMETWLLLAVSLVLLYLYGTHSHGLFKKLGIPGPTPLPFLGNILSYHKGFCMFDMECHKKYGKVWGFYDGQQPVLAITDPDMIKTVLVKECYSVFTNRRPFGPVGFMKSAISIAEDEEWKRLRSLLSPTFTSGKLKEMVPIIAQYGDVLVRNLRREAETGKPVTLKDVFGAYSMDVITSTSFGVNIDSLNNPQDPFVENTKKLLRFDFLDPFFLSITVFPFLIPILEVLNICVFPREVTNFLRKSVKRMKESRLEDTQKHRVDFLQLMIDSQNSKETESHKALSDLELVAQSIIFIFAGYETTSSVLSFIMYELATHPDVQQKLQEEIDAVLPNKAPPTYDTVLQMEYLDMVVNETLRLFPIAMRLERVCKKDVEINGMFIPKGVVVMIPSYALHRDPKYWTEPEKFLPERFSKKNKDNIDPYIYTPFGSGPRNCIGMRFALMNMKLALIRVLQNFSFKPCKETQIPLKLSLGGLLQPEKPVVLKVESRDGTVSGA
Cytochrome P450 2D6, sequence (P10635 whole entry): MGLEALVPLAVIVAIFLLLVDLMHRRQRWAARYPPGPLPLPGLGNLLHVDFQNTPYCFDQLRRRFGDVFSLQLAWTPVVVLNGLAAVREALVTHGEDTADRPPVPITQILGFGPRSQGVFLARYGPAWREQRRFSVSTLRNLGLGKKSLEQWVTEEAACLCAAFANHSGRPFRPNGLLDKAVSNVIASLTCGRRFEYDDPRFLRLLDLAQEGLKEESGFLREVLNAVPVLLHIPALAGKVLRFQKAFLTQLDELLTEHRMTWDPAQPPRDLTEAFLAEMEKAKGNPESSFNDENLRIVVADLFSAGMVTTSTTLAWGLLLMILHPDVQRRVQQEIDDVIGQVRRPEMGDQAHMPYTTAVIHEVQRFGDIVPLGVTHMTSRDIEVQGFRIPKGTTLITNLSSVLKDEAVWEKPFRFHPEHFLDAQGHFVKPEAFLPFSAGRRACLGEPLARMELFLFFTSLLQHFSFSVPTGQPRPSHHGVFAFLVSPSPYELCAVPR

- fraction unbound [1]: 0.18
- MRT last at 24 h [2]: 3.75 h
- Cmax [3]: 9540 ng/mL
- IC50 [4]: > 10 µM
- AUC(0-t) at 24 h [5]: 79400 ng·h/mL
- AUC(0-inf) [6]: 30900 ng·h/mL
- IC50 [7]: > 10 µM
- IC50 [9]: > 10 µM
- fold change (FC) [10]: 3.63
- fraction unbound [12]: 0.09
- Cmax [13]: 12700 ng/mL
- CLint scaled [15]: < 14.5 mL/min/kg
- remaining at 0.5 h [16]: 65%
- half-life [19]: 2.8 h
- clearance [21]: 2.88 mL/min/kg
- IC50 [22]: > 10 µM
- half-life [23]: > 2 h
- AUC(0-t) at 24 h [24]: 30400 ng·h/mL
- bioavailability [25]: 65.4%
- MRT last at 24 h [26]: 2.83 h
- Activity [27]: Active
- Vd [28]: 0.51 L/kg
Compound: Cn1nc(Cc2ccc(NS(N)(=O)=O)cc2)c2ccccc2c1=O
- Activity [8]: Non-Toxic
- Activity [11]: Non-Toxic
- inhibition in vivo at 200 mg/kg [14]: 55%
- inhibition in vivo at 200 mg/kg [17]: 69%
- Activity [18]: Non-Toxic
- Activity [20]: 100%
